From article PMC12880737 (Journal of medicinal chemistry, 2025)

Experiments:
[1] = biological target: his6-GAS41 YEATS (13-158) (Homo sapiens, UniProt O95619); test: AlphaLISA competition assay with 21-biot probe
GAS41 YEATS domain [2] = biological target: T1, GAS41 YEATS domain (Homo sapiens, UniProt O95619); test: Fluorescence polarization competition assay with H3K23crK27cr-FAM probe; assay type: binding
Target sequence in this assay (O95619 1-148): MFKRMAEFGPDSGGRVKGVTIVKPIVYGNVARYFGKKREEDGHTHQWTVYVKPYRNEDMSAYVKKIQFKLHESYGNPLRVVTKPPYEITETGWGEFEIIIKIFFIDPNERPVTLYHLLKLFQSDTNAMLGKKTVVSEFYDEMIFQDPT

[3] = biological target: NanoLUC-GAS41 and Halo-H3.3 (Homo sapiens, UniProt O95619); test: GAS41 NanoBRET assay in HEK293T cells; assay type: cell-based
Chain of NanoLUC-GAS41 and Halo-H3.3 (O95619 whole entry): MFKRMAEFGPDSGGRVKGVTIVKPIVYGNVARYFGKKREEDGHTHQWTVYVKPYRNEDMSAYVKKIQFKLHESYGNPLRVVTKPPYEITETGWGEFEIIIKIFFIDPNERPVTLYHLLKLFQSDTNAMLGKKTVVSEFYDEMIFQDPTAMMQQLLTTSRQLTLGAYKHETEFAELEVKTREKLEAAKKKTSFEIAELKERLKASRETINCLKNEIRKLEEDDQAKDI

CDKN1A = CDKN1A gene expression by RT-qPCR in H1299 cells; assay type: cell-based; conditions: 7 days
GAS41 YEATS domain [4] = biological target: T1, GAS41 YEATS domain; test: 1H-15N HSQC NMR binding experiments; conditions: 50 μM 15N GAS41 YEATS, 100 μM compound
Target sequence in this assay (O95619 18-190): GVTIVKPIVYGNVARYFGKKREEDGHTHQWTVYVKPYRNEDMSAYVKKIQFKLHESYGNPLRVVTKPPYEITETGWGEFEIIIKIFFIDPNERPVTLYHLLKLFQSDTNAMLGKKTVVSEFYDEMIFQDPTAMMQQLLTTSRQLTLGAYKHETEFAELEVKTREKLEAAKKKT

H1299 cells = test: Wound healing assay; assay type: cell-based; conditions: H1299, 24 h
[5] = biological target: NanoLuc-tagged BRD4-BD1 and Halo-tagged histone H3.3 (Homo sapiens, UniProt O60885); test: BRD4-BD1 NanoBRET assay; assay type: cell-based; conditions: Figure S3

Chain of his6-GAS41 YEATS (13-158) (O95619 13-158): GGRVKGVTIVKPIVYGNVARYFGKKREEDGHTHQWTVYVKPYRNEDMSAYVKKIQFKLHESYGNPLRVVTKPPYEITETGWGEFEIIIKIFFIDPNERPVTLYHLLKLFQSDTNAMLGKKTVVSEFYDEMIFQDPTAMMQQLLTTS

SMILES | IC50 [1] | IC50 (GAS41 YEATS domain [2]) | also measured
O=C(NCc1ccc(-c2cnc(C3CN(C(=O)c4ccc(NC(=O)[C@@H]5CCCN5)s4)C3)s2)cc1)c1ccccc1 [Compound 31, (S)-N-(5-(3-(5-(4-(benzamidomethyl)phenyl)thiazol-2-yl)azetidine-1-carbonyl)thiophen-2-yl)pyrrolidine-2-carboxamide] | 200 ± 80 nM | 1100 ± 10 nM | 
Cc1sc2c(c1C)C(c1ccc(Cl)cc1)=N[C@@H](CC(=O)OC(C)(C)C)c1nnc(C)n1-2 [JQ1, reference compound] |  |  | activity in GAS41 BRET assay ([3]; Figure S3): no activity
CCC(=O)NCc1ccc(-c2cnc(C3CN(C(=O)c4cnc(NC(=O)[C@@H]5CC(C)(C)CN5)s4)C3)s2)c2ccccc12 [Compound 40, (S)-4,4-dimethyl-N-(5-(3-(5-(4-(propionamidomethyl)naphthalen-1-yl)thiazol-2-yl)azetidine-1-carbonyl)thiazol-2-yl)pyrrolidine-2-carboxamide] | > 50000 nM | 118000 ± 7700 nM | levels of CDKN1A (CDKN1A): but not DLG-41nc strongly enhanced levels of CDKN1A; amide perturbations in 1H-15N HSQC NMR (GAS41 YEATS domain [4]): no perturbations; IC50 [3]: > 25000 nM
CCC(=O)NCc1ccc(-c2cnc(C3CN(C(=O)c4ccc(NC(=O)[C@@H]5CC(C)(C)CN5)s4)C3)s2)c2ccccc12 [Compound 39, (S)-4,4-dimethyl-N-(5-(3-(5-(4-(propionamidomethyl)naphthalen-1-yl)thiazol-2-yl)azetidine-1-carbonyl)thiophen-2-yl)pyrrolidine-2-carboxamide] |  |  | scratch healing (H1299 cells): slowed scratch healing; activity in BRD4-BD1 NanoBRET assay [5]: no activity
O=C(NCc1ccc(-c2cnc(C3CN(C(=O)c4ccc(NC(=O)[C@@H]5CCCN5)s4)C3)s2)cc1)C1CCCC1 [Compound 30, (S)-N-(5-(3-(5-(4-(cyclopentanecarboxamidomethyl)phenyl)thiazol-2-yl)azetidine-1-carbonyl)thiophen-2-yl)pyrrolidine-2-carboxamide] | 600 ± 80 nM | 1300 ± 400 nM | 
CC(=O)NCc1ccc(-c2cnc(C3CN(C(=O)c4ccc(NC(=O)[C@@H]5CCCN5)s4)C3)s2)c(Cl)c1 [Compound 35, (S)-N-(5-(3-(5-(4-(acetamidomethyl)-2-chlorophenyl)thiazol-2-yl)azetidine-1-carbonyl)thiophen-2-yl)pyrrolidine-2-carboxamide] | 1400 ± 330 nM | 3400 ± 130 nM | 
